According to patent US6107333A (priority 1999, dated 2000):
Entries after “also recorded” stand apart in the source; their conditions may differ. Like-named read-outs stand apart in the source and are kept apart here.

How the values were obtained:
[1] = Solubility of paclitaxel in various solvents (HPLC); type: physicochemical
Protocol: A known amount of the drug, as a powder (two different aliquots of purified drug were obtained from Xechem Inc. New Brunswick, N.J.), was equilibrated in the respective solvent at RT (22° C.) over 1 hour. An aliquot was then removed and diluted in MeOH prior to HPLC at predetermined times. […] Different solvent systems were evaluated relative to the above estimates of necessary solubility to arrive at a clinically relevant stable stock formulation. This stock formulation would then be diluted with a "final solvent" to yield a complete stable clinical working formulation of 1-5 mg/ml, that could be infused parenterally. The final solvent was selected from one of the commonly utilized parental infusion fluids, NS, 5% dextrose in water or a parenterally acceptable aqueous lipid emulsion (e.g., Intralipid), all of which are readily available and approved for parenteral administration.
An excess of paclitaxel as a powder was added to DMA, DMSO, PEG, and PG at RT. Each mixture was placed in a dark environment and checked visually for up to 1 hour for evidence of solubilization.

[2] = for Stability (in words) / Degradation over first 60 days (in words): 25 mg/ml; for Stability of use-formulation (in words): aqueous lipid emulsion as terminal solvent
Protocol: To study the physical and chemical stability of the various parenteral formulations, 3 sets of studies were performed: […]
The various formulations were analyzed by HPLC immediately after mixing, then hourly for 8 hours, and then at gradually increasing time intervals for more than 10 days, depending on the initial rate of degradation in the respective solvent system.
Different aliquots were stored at 4° C., 22° C., 40° C., and 60° C. […] Immediately after solubilization and at various intervals up to more than 50 days, aliquots from different samples were analyzed by HPLC.

erythrocytes = experiment: Hemolysis studies in vitro; type: cell-based; conditions: drug concentrations up to and exceeding 50 μg/ml; 4 hours at 37° C.
Protocol: The procedure of Parthasarathy et al. was used to examine the hemolytic potential of a few selected preparations and the LD50 values of the most optimal formulation was constructed as described (Parthasarathy et al., 1994). Heparinized blood was mixed with an equal volume of Alsever's solution. […] These mixtures were then incubated for 4 hours at 37° C. At the end of the incubation, the cells were pelleted at 10,000×gin an Eppendorf micro-centrifuge and the release of hemoglobin in the supernatant (ie., hemolysis) was determined spectrophotometrically at 550 nm. Maximum lysis was measured against a reference solution of erythrocytes that had been completely lysed by hypotonic shock. The hemolytic potential of the "optimal" complete formulation was evaluated as described (Parthasarathy et al., 1994) and the data were plotted as the fraction of healthy cells versus 1n (total volume percent). Total volume percent was defined as the volume percent of the vehicle in the mixture after dilution with blood. This was done to simulate the dilution of the respective drug formulation in the blood stream after parenteral administration.

[3] = Paclitaxel plasma concentration after iv injection in rats; type: in vivo, male Sprague-Dawley rats; conditions: 3 mg/kg iv
Protocol: For the in vivo study, male Sprague-Dawley rats with a body weight of 250-300 g were used. They were bought from the Harlan-Sprague-Dawley local breeding facility in Houston, Tex. The animals were allowed a minimum of 3-4 days to accommodate to the change of environment after shipping to the MD Anderson Cancer Center. All animals were allowed free access to commercial feed and tap water prior to and during the pharmacological study. The dose of 3 mg/kg was determined as the highest dose that could be given to the rats as a slow iv injection of the Cremophor® EL based preparation without a lethal anaphylactoid reaction in the absence of pharmacological premedication.
This avoided the possible influence of induction of microsomal liver enzymes which could alter drug metabolism/elimination and influence (the later part of) the plasma concentration curve. For the same reason, all animals were unanesthesized and only physically restrained during the drug injection. The drug concentration of the injected use-formulation was confirmed by HPLC prior to use. […] The blood was centrifuged at 1,000×g for 10 min and the plasma was separated and stored at -80° C. until extracted and assayed by HPLC as described above.

[4] = tested on: ovarian and mammary carcinomas; conditions: clinical testing; cited from earlier work

Compound: CC(=O)O[C@H]1C(=O)[C@@]2(C)[C@H]([C@H](OC(=O)c3ccccc3)[C@]3(O)C[C@H](OC(=O)[C@H](O)[C@@H](NC(=O)c4ccccc4)c4ccccc4)C(C)=C1C3(C)C)[C@]1(OC(C)=O)CO[C@@H]1C[C@@H]2O [Paclitaxel]
- solubility ([1]; 5% dextrose, solvent 5% dextrose, 60 min at room temperature, read-out: Solubility): < 100 µg/mL
- Solubility (in words) ([1]; PEG-400, PG, NS, Intralipid and 5% dextrose, RT): did not yield any significant concentrations of solubilized drug
- solubility ([1]; dma, organic solvent or mixture, solvent DMA, RT, read-out: Solubility): > 200000 µg/mL
- solubility ([1]; dmso, organic solvent or mixture, solvent DMSO, RT, read-out: Solubility): > 100000 µg/mL
- solubility ([1]; intralipid, solvent Intralipid, 60 min at room temperature, read-out: Solubility): < 100 µg/mL
- Solubility (in words) ([1]; most of the aqueous solvents): insoluble in most of the aqueous solvents
- solubility ([1]; normal saline, solvent normal saline, 60 min at room temperature, read-out: Solubility): < 100 µg/mL
- solubility ([1]; peg, organic solvent or mixture, solvent PEG, 60 min at room temperature, read-out: Solubility): < 100 µg/mL
- solubility ([1]; propylene glycol, organic solvent or mixture, solvent propylene glycol, 60 min at room temperature, read-out: Solubility): < 100 µg/mL
- solubility ([1]; solvent DMA, RT): > 100000 µg/mL
- Time within which significant degradation took place [2]: 4 to 6 h
- Time without discernible degradation [2]: more than 4.5 months
- Stability (in words) ([2]; room temperature): stable at 25 mg/ml for several months at room temperature
- Concentration of stable solution ([2]; DMA with PEG added (stock solution)): 25 mg/mL
- Degradation over first 60 days (in words) ([2]; DMA:PEG (1:3, v/v) stock, 4° C.): did not show any significant degradation
- Stability (in words) ([2]; DMA:PEG (1:3, v/v) stock, 4° C., 4.5 months): overlapping with that recorded for the samples stored at RT
- Degradation over first 60 days (in words) ([2]; DMA:PEG (1:3, v/v) stock, 40° C.): did not show any significant degradation
- Degradation over first 60 days (in words) ([2]; DMA:PEG (1:3, v/v) stock, RT): did not show any significant degradation
- Stability of use-formulation (in words) ([2]; 1 mg/ml, 4° C.): stable at 1 mg/ml and at 5 mg/ml for over one week
- Stability of use-formulation (in words) ([2]; 1 mg/ml, RT): stable at 1 mg/ml and at 5 mg/ml for over one week
- Stability of use-formulation (in words) ([2]; 5 mg/ml, 4° C.): stable at 1 mg/ml and at 5 mg/ml for over one week
- Stability of use-formulation (in words) ([2]; 5 mg/ml, RT): stable at 1 mg/ml and at 5 mg/ml for over one week
- Degradation on storage (in words) ([2]; in DMA, >100 mg/ml, RT): started degrading slowly after storage over night at RT
- Paclitaxel dependent lysis (in words) (erythrocytes): barely notable above background
- Paclitaxel plasma concentrations (in words) [3]: clearly cytocidal concentrations of paclitaxel are maintained for many hours; also recorded: clearly reach, and for extended time, remain in the antineoplastic range
- Antitumor activity (in words) [4]: impressive activity against ovarian and mammary carcinomas
